Structures can show the parent of a compound that is named as a salt.
Columns and labels:
Assay in all cases: In vitro MMP inhibition, IC50 determination (fluorogenic substrate I)
Assay type in all cases: biochemical
Human recombinant MMP-9 = molecular target: T1, Human recombinant MMP-9 (Homo sapiens, UniProt P14780)
T1 construct: made in house; host or cells: MMP-9-transfected HT1080 cells (spent media)
Procedure, shortened: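 MMP-9 proenzyme purified from transfected HT1080 cell media, activated with APMA or trypsin. Compound dilutions in pH 7.5 Tris/NaCl/CaCl2 buffer with 0.05% polyoxyethylene 23 lauryl ether, incubated at room temperature with 4 μM MCA/Dpa substrate I. IC50 from fluorescence loss (ex 328, em 415 nm) versus inhibitor concentration.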

Human recombinant MMP-1 = molecular target: T2, Human recombinant MMP-1 (Homo sapiens, UniProt P03956)
T2 construct: made in house; host or cells: MMP-1-transfected HT-1080 cells (spent media)
T2 sequence (P03956 100-469): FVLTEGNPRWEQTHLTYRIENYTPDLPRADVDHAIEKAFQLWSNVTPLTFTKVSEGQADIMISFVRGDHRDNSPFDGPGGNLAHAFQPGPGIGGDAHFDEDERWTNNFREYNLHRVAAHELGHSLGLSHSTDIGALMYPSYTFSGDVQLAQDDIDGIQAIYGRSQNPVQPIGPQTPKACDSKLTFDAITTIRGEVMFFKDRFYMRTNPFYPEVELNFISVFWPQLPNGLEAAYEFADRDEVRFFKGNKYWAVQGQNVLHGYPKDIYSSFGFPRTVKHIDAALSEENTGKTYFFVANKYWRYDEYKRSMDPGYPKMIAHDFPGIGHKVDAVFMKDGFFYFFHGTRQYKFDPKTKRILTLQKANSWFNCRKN
Procedure, shortened: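 APMA- or trypsin-activated enzyme, purified from spent media of transfected HT-1080 cells, incubated at room temperature with 4 μM MCA-Pro-Leu-Gly-Leu-Dpa-Ala-Arg-NH2 and graded inhibitor in Tris buffer pH 7.5 (10 mM CaCl2, 0.05% Brij). Cleavage read by fluorescence (ex 328/em 415 nm); IC50 from fluorescence reduction versus inhibitor concentration.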

Human recombinant MMP-2 = molecular target: T3, Human recombinant MMP-2 (Homo sapiens, UniProt P08253)
T3 construct: made in house; host or cells: MMP-2-transfected p2AHT2 cells
T3 sequence (P08253 110-660): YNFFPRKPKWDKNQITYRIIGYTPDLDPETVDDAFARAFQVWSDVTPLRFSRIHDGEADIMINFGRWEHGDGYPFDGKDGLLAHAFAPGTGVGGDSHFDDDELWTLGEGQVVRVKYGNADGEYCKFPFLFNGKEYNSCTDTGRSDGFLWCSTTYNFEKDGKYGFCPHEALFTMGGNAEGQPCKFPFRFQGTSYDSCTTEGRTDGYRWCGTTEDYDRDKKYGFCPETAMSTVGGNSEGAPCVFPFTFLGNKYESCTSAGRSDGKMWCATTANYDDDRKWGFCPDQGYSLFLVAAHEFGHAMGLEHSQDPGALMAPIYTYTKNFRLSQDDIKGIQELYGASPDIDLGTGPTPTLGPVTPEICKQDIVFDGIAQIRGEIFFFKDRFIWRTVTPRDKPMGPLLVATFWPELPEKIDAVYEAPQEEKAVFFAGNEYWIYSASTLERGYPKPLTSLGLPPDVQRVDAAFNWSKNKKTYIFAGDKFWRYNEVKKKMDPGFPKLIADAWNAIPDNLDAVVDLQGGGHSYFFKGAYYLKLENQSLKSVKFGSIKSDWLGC
Procedure, shortened: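 APMA- or trypsin-activated recombinant MMP-2 was incubated at room temperature with serial inhibitor dilutions in Tris buffer pH 7.5 (100 mM NaCl, 10 mM CaCl2, 0.05% Brij), with DMSO from 1% stocks, and 4 μM substrate I. Cleavage was read by fluorescence at 328/415 nm; IC50 was taken from the loss of fluorescence versus inhibitor concentration.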

Human recombinant MMP-13 = molecular target: T4, Human recombinant MMP-13 (Homo sapiens, UniProt P45452)
T4 construct: made in house; host or cells: baculovirus / insect cells
Procedure, shortened: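 Fluorescence at 415 nm (excitation 328 nm) reports Gly-Leu cleavage of 4 μM quenched methoxycoumarin peptide substrate I. Human recombinant MMP-13, activated by trypsin or APMA, was incubated at room temperature with varied inhibitor concentrations in pH 7.5 Tris/NaCl/CaCl2 buffer; IC50 derived from reduced fluorescence.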

Human recombinant MMP-14 = molecular target: T5, Human recombinant MMP-14 (Homo sapiens, UniProt P50281)
T5 construct: The catalytic domain enzyme was expressed in E. coli inclusion bodies, solubilized in urea; made in house
Procedure, shortened: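 Catalytic-domain MMP-14, expressed in E. coli and refolded, activated with APMA or trypsin; compounds incubated at room temperature with 4 μM fluorogenic substrate I (MCA-PLGL-Dpa-AR-NH2) in Tris/NaCl/CaCl2 buffer, pH 7.5. Fluorescence at ex 328/em 415 nm; IC50 from loss of fluorescence versus inhibitor concentration.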

[1] = value outside parentheses (Ki in parenthesis)
[2] = substrate (I) 4 μM, room temperature, values not in parenthesis

T1 sequence (P14780 107-707 limits assumed): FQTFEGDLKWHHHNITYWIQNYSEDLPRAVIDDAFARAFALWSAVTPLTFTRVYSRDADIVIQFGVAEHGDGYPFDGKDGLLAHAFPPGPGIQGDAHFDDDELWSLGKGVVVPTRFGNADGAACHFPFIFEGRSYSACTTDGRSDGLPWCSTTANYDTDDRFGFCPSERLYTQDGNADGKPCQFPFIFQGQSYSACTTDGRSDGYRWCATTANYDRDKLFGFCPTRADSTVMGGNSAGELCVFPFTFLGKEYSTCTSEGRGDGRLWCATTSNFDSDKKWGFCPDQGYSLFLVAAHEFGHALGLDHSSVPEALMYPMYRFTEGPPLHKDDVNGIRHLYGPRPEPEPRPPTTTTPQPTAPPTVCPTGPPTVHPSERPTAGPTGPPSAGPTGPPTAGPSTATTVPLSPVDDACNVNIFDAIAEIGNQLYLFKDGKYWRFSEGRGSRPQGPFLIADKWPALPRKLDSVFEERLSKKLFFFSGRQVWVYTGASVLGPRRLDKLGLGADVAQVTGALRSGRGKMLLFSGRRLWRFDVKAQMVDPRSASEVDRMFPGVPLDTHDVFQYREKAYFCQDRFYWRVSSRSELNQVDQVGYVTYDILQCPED

Compound | IC50 (Human recombinant MMP-9; [1]) | IC50 (Human recombinant MMP-1; [1]) | IC50 (Human recombinant MMP-2; [1]) | IC50 (Human recombinant MMP-13; [1]) | IC50 (Human recombinant MMP-14; [1]) | IC50 (Human recombinant MMP-9; value outside parenthesis) | IC50 (Human recombinant MMP-1; value outside parenthesis) | IC50 (Human recombinant MMP-2; value outside parenthesis) | IC50 (Human recombinant MMP-13; value outside parenthesis) | IC50 (Human recombinant MMP-14; value outside parenthesis) | other results
O=C(NO)C1(S(=O)(=O)c2ccc(OCCCCS(=O)(=O)C3CCCCC3)cc2)CCOCC1 [Example 348] | > 10000 nM | > 10000 nM | 61.8 nM | 4.4 nM | > 10000 nM |  |  |  |  |  | 
CN(C)Cc1ccc(C(=O)CCCCOc2ccc(S(=O)(=O)C3(C(=O)NO)CCN(C4CC4)CC3)cc2)cc1 [Example 187] |  |  |  |  |  | 11.2 nM | 3870 nM | 3.6 nM | 1.8 nM | 1420 nM | 
O=C(NO)C1(S(=O)(=O)c2ccc(OCCSc3nc4cc(Cl)ccc4s3)cc2)CCOCC1 [Example 281] |  |  |  |  |  | 276 nM | > 10000 nM | 70.4 nM | 1.3 nM | > 10000 nM | 
COc1ccc(/C(C)=C/CCCOc2ccc(S(=O)(=O)C3(C(=O)NO)CCOCC3)cc2)cc1 [Example 28, tetrahydro-N-hydroxy-4-[[4[[(4E)-5-(4-methoxyphenyl)-4-hexenyl]oxy]phenyl]sulfonyl]-2H-pyran-4-carboxamide] |  |  |  |  |  |  |  |  |  |  | IC50 (Human recombinant MMP-9; [2]): 3710 nM; IC50 (Human recombinant MMP-1; [2]): > 10000 nM; IC50 (Human recombinant MMP-2; [2]): 76.4 nM; IC50 (Human recombinant MMP-13; [2]): 7 nM; IC50 (Human recombinant MMP-14; [2]): > 10000 nM
CCOc1ccc2nc(SCCOc3ccc(S(=O)(=O)C4(C(=O)NO)CCOCC4)cc3)sc2c1 [Example 330] | 216 nM | > 10000 nM | 262 nM | 16 nM | 592 nM |  |  |  |  |  | 
COCCN1CCC(C(=O)NO)(S(=O)(=O)c2ccc(OCCCSc3nc4ccccc4o3)cc2)CC1 [Example 43, 4-([4-[3-(1,3-benzoxazol-2-ylthio)propoxy]phenyl]sulfonyl)-N-hydroxy-1-(2-methoxyethyl)piperidine-4-carboxamide Hydrochloride] |  |  |  |  |  |  |  |  |  |  | IC50 (Human recombinant MMP-9; [2]): 1 nM; IC50 (Human recombinant MMP-1; [2]): > 10000 nM; IC50 (Human recombinant MMP-2; [2]): 4.8 nM; IC50 (Human recombinant MMP-13; [2]): 1 nM; IC50 (Human recombinant MMP-14; [2]): 2080 nM
O=C(NO)C1(S(=O)(=O)c2ccc(OCCCc3nnc(-c4ccc(OC(F)(F)F)cc4)o3)cc2)CCOCC1 [Example 200] |  |  |  |  |  | 1210 nM | 7500 nM | 84 nM | 0.6 nM | > 10000 nM | 
COc1ccc(-c2noc(CCCOc3ccc(S(=O)(=O)C4(C(=O)NO)CCOCC4)cc3)n2)cc1 [Example 237] |  |  |  |  |  | 1110 nM | > 10000 nM | 42.5 nM | 0.7 nM | > 10000 nM | 
COc1ccc(NC(=O)NCCOc2ccc(S(=O)(=O)C3(C(=O)NO)CCOCC3)cc2)cc1 [Example 418] | > 10000 nM | > 10000 nM | 1500 nM | 64 nM | > 10000 nM |  |  |  |  |  | 
O=C1CN(c2ccccc2Cl)C(=O)N1CCCOc1ccc(S(=O)(=O)C2(C(=O)NO)CCOCC2)cc1 [Example 224] |  |  |  |  |  | 1470 nM | > 10000 nM | 193 nM | 4.7 nM | > 10000 nM | 
O=C1c2ccccc2C(=O)N1CCCOc1ccc(S(=O)(=O)C2(C(=O)NO)CCOCC2)cc1 [Example 21, 4-[[4-[3-(1,3-dihydro-1,3-dioxo2H-isoindol-2-yl)propoxy]phenyl]sulfonyl]tetrahydro-N-hydroxy-2H-pyran-4-carboxamide] |  |  |  |  |  |  |  |  |  |  | IC50 (Human recombinant MMP-9; [2]): > 10000 nM; IC50 (Human recombinant MMP-1; [2]): > 10000 nM; IC50 (Human recombinant MMP-2; [2]): 450 nM; IC50 (Human recombinant MMP-13; [2]): 3.5 nM; IC50 (Human recombinant MMP-14; [2]): > 10000 nM
COc1ccc2sc(SCCOc3ccc(S(=O)(=O)C4(C(=O)NO)CCOCC4)cc3)nc2c1 [Example 282] |  |  |  |  |  | 704 nM | > 10000 nM | 43.3 nM | 2.6 nM | > 10000 nM | 
O=C(NO)C1(S(=O)(=O)c2ccc(OCCOc3ccccc3)cc2)CCOCC1 [Example 667] |  |  |  |  |  |  |  |  |  |  | IC50 (Human recombinant MMP-9; value outside parentheses): 34.2 nM; IC50 (Human recombinant MMP-1; value outside parentheses): > 10000 nM; IC50 (Human recombinant MMP-2; value outside parentheses): 27.3 nM; IC50 (Human recombinant MMP-13; value outside parentheses): 9.42 nM; IC50 (Human recombinant MMP-14; value outside parentheses): 2510 nM
O=C(NO)C1(S(=O)(=O)c2ccc(OCCc3cccc(-c4ccc(F)c(F)c4)c3)cc2)CCOCC1 [Example 122] |  |  |  |  |  | 7670 nM | > 10000 nM | 760 nM | 1.9 nM | > 10000 nM | 
O=C(CCCOc1ccc(S(=O)(=O)C2(C(=O)NO)CCOCC2)cc1)c1cccs1 [Example 297] | 64.6 nM | 6810 nM | 8.1 nM | 0.5 nM | 6560 nM |  |  |  |  |  | 
O=C(NO)C1(S(=O)(=O)c2ccc(OCCCCCN3CCc4ccccc4C3)cc2)CCOCC1 [Example 360] | 547 nM | > 10000 nM | 9.7 nM | 6.4 nM | 962 nM |  |  |  |  |  | 
O=C(NO)C1(S(=O)(=O)c2ccc(OCCCc3nc(-c4ccc([N+](=O)[O-])cc4)no3)cc2)CCOCC1 [Example 212] |  |  |  |  |  | 212 nM | 1410 nM | 4.1 nM | 0.3 nM | > 10000 nM | 
O=C1N(CCCOc2ccc(S(=O)(=O)C3(C(=O)NO)CCOCC3)cc2)CCN1c1ccc(OC(F)(F)F)cc1 [Example 194] |  |  |  |  |  | 516 nM | > 10000 nM | 222 nM | 6.2 nM | > 10000 nM | 
COc1ccc(C(O)CCCCOc2ccc(S(=O)(=O)C3(C(=O)NO)CCOCC3)cc2)cc1 (stereo not drawn) [Example 487] | 169 nM | > 10000 nM | 3.1 nM | 0.5 nM | 1570 nM |  |  |  |  |  | 
O=C(NO)C1(S(=O)(=O)c2ccc(OCCOCc3ccccc3)cc2)CCOCC1 [Example 653] |  |  |  |  |  |  |  |  |  |  | IC50 (Human recombinant MMP-9; value outside parentheses): 49.1 nM; IC50 (Human recombinant MMP-1; value outside parentheses): 3920 nM; IC50 (Human recombinant MMP-2; value outside parentheses): 24.9 nM; IC50 (Human recombinant MMP-13; value outside parentheses): 5.58 nM; IC50 (Human recombinant MMP-14; value outside parentheses): 2510 nM
CC(C)(C)C1CCN(S(=O)(=O)CCCOc2ccc(S(=O)(=O)C3(C(=O)NO)CCOCC3)cc2)CC1 [Example 310] | 1980 nM | > 10000 nM | 32 nM | 3 nM | > 10000 nM |  |  |  |  |  | 

Source: patent US20040024024A1, “Aromatic sulfone hydroxamates and their use as protease inhibitors” (priority 2001, published 2004)
